Earlier results on two molecules are cited in patent publication US20100016582A1 (Wyeth, priority 2008, published 2010).

The conditions of data set [1]: drug formulations; acetic acid.
The conditions of data set [2]: contact with a solvent or solvent mixture (e.g., ethyl acetate and ethanol).
For the next data set, the system named is uterine response. The note with it: preclinical models of uterine stimulation.
Data set [3] concerns ovariectomized rat model of osteopenia.
In data set [4] the test system is MCF-7 cell line (human breast cancer cell line).

For the molecule `Cc1c(-c2ccc(O)cc2)n(Cc2ccc(OCCN3CCCCCC3)cc2)c2ccc(O)cc12` [Form A, 1-[4-(2-azepan-1-yl-ethoxy)-benzyl]-2-(4-hydroxy-phenyl)-3-methyl-1H-indol-5-ol acetic acid], the bioavailability result in data set [1] is listed as “better bioavailability in some drug formulations”. The “conversion of Form A to Form B” value in data set [2] is given as “can easily convert to Form B”.

`Cc1c(-c2ccc(O)cc2)n(Cc2ccc(OCCN3CCCCCC3)cc2)c2ccc(O)cc12` [bazedoxifene acetate, 1-[4-(2-azepan-1-yl-ethoxy)-benzyl]-2-(4-hydroxy-phenyl)-3-methyl-1H-indol-5-ol acetic acid]: in the data set with uterine response, the “stimulation of uterine response” value is reported as “little or no stimulation of uterine response”. Also, in data set [3], the “prevention of bone loss” value is listed as “estrogen agonist-like effect in preventing bone loss” and the reduction of cholesterol entry was “reducing cholesterol”. Besides, in data set [4], the estrogen antagonist behaviour result was “behaves as an estrogen antagonist”.
